We go through 3 compounds from patent publication US8796281B2, “Lighting device having at least one heat sink” (Jinan University, priority 2010, dated 2014).

“Also recorded” adds a separate entry of the source.

One series deals with aging accelerated mice. Particulars: intraperitoneally injected daily; cited from earlier work.
A further series concerns 24-month-old rats. To be noted: cited from earlier work.
The conditions of series [1]: in vivo; cited from earlier work.
Another series relates to Dopaminergic neurons. As to the kind of experiment: Cytoprotection on injuries of dopaminergic neurons induced by MPP+. In kind it is cell-based. To be noted: 500 μM, 50 μM and 5 μM, MPP+ 10 μM, FIG. 5. On the procedure: Dopaminergic neurons were cultured for 5 days, and L-Deprenyl, TMP and TN-2 were added in a concentration gradient of 500 μM, 50 μM and 5 μM respectively. Two hours later, MPP^+(with a final concentration of 10 μM) was added into each of the wells except those of the control.

In series [2] the test system is rats with ischemia caused by MCAo. As to the kind of experiment: Protection of rats having cerebral ischemia caused by MCAO (TTC, extent of cerebral infarction). In kind it is in vivo. To be noted: 65 mg/kg intravenously 1 hr after ischemia, 2 hrs ischemia, 24 hrs reperfusion, FIG. 4. On the procedure:
Anesthesia was performed on rats (female SD rats, in body weight of 260-300 g) with intraperitoneal injection of 10% hydrated chloral hydrate in a dose of 400 mg/kg or with inhalation of 3.5% halothane. At the entrance of MCAO (Middle Cerebral Artery Occlusion Ischemia) was blocked with a nylon wire to cause cerebral ischemia. After ischemia occurred for 1 hr, the rats were respectively intravenously injected with EDA (63 mg/kg), TBN (80 mg/kg), TN-2 (65 mg/kg), and saline (control group). There were 6 rats in each group. After ischemia occurred for 2 hrs, the nylon wires were removed, and reperfusion was performed for 24 hrs. Brain tissues were taken and the cerebellums were removed. The material was rinsed in PBS solution, and put in a freezer set at −20° C. for a moment, and the brain tissues were cut into slices with a thickness of about 2 mm, and immediately placed in a solution of 0.5% triphenyltetrazolium chloride (TTC). Incubation was performed at 37° C. for 30 minutes. The extent of cerebral infarction was evaluated. […] In FIG. 4, the data were examined by one-tailed t-test; the mark “*” refers to the data in comparison with the control; drug dosage: TBN (80 mg/kg), and Edaravone (63 mg/kg); and each of the drugs were used in equal molarity.

For another series, the system named is PC12 cells. As to the kind of experiment: Cytoprotection of PC12 cells against t-BHP-induced damage (MTT). In kind it is cell-based, rats. To be noted: t-BHP 200 μM, FIG. 3. On the procedure:
PC12 cells were inoculated in a 96-well plate of strong adsorption with 90 μL per well, cultured for 36 hrs in an incubator set at 37° C. and 5% CO2. After 36 hrs, each of the drugs was added in four concentration gradients. Cultured for half an hour in an incubator set at 37° C. and 5% CO2, replaced with serum-free medium, t-BHP ([…], final concentration of 200 μM) was added in each of the wells except the well of the control. Then the material was placed and cultured in an incubator for 24 hrs. The cells were cultured for 24 hrs, and MTT (15 μL, 5 mg/mL) was added in each of the wells. The material was cultured in an incubator for 4 hrs, and then DMSO ([…]) was added in each of the wells to be further incubated for at least half an hour to ensure the crystals were completely dissolved. The absorbance (A value) was measured by using a micro-plate reader at 570 nm.

[3] abbreviates: 32 mg/kg intraperitoneally daily for 9.5 months.

Regarding `CC(C)(C)/[N+]([O-])=C/c1ccccc1` [PBN, Phenyl-tert-Butyl Nitrones], the “increase in the lifespan of the mice” value with aging accelerated mice is recorded as 33%. In the series on 24-month-old rats (setting [3]), the “cognitive ability for older rats” value is “enhanced”; the “lipid peroxidation reactions in cerebral cortex and globus pallidus” value is “diminished”. Besides, in the series with 24-month-old rats (when the experiment was run for 32 months), the rats still alive is 7 of the 11.
For the compound `Cc1nc(C)c(C)nc1C` [TMP, Tetramethylpyrazine], in series [1], the bioavailability entry is “low”.
On to `Cc1nc(/C=[N+](/[O-])C(C)(C)C)c(C)nc1/C=[N+](/[O-])C(C)(C)C` [TN-2], for which the “cytoprotection to the MPP+-induced cell damage” value in the series with Dopaminergic neurons was “significant”. In series [2], the “treatment effects on stroke of the rats (extent of cerebral infarction)” value was “significant treatment effects”. Moreover, the “cytoprotection towards the t-BHP-induced cell damage” value with PC12 cells (24 hrs, MTT absorbance at 570 nm) was “significant effect of cytoprotection; also recorded: significant protective effects”. Moreover, the “intensity of the cytoprotective effect compared with TMP” value with PC12 cells was “significantly higher than that of TMP”.
